Drawing on ChEMBL document CHEMBL1145498, “A systematic interaction map of validated kinase inhibitors with Ser/Thr kinases” (Proc Natl Acad Sci U S A, 2007), this text covers ΔTm for six compounds.

Test [1] addresses Calcium/calmodulin-dependent protein kinase type 1D (Homo sapiens) (UniProt Q8IU85).
In test [2] the target is Calcium/calmodulin-dependent protein kinase type 1G (Homo sapiens) (UniProt Q96NX5).
Test [3] deals with Cyclin-dependent kinase 6 (Homo sapiens) (UniProt Q00534).
Test [4] has as its target Dual specificity protein kinase CLK1 (Homo sapiens) (UniProt P49759).
The target in test [5] is Death-associated protein kinase 3 (Homo sapiens) (UniProt O43293).
Test [6] concerns the target Dual specificity mitogen-activated protein kinase kinase 2 (Homo sapiens, UniProt P36507).
The target in test [7] is Mitogen-activated protein kinase 3 (Homo sapiens, UniProt P27361).
For test [8], the target named is T1, Serine/threonine-protein kinase Nek2 (Homo sapiens) (UniProt P51955).
T1 sequence (whole entry): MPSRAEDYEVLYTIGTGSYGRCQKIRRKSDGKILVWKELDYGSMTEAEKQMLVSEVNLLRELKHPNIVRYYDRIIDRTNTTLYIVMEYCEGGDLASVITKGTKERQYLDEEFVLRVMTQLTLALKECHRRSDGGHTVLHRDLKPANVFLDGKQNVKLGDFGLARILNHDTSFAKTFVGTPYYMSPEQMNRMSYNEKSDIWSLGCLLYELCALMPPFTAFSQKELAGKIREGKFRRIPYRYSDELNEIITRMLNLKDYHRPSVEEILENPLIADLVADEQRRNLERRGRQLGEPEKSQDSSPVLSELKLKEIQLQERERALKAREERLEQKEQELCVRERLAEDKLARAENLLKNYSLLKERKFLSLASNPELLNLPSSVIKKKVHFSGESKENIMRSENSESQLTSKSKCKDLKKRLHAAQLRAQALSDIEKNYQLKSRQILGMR

Test [9] concerns the target Serine/threonine-protein kinase Nek6 (Homo sapiens) (UniProt Q9HC98).
Test [10] deals with Serine/threonine-protein kinase OSR1 (Homo sapiens) (UniProt O95747).
Test [11] has as its target T2, 3-phosphoinositide-dependent protein kinase 1 (Homo sapiens) (UniProt O15530).
T2 sequence (whole entry): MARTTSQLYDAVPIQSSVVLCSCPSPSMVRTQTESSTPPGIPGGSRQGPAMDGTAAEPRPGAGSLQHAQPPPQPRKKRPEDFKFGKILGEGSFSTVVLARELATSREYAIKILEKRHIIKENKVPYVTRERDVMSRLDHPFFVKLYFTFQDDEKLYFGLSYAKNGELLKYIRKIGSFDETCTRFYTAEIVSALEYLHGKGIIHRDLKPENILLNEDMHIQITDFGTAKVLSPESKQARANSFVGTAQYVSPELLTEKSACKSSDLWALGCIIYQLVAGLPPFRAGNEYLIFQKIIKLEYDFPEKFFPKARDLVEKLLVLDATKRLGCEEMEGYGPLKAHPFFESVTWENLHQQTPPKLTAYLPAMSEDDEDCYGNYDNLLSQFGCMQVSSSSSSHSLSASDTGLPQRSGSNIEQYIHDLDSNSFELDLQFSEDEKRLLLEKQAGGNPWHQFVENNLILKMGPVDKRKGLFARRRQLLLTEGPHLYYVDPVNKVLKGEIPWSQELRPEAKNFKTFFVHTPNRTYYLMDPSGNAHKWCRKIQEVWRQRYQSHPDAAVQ

Test [12] has as its target cAMP-dependent protein kinase catalytic subunit alpha (Homo sapiens) (UniProt P17612).
In test [13] the target is Serine/threonine-protein kinase RIO2 (Homo sapiens) (UniProt Q9BVS4).
The target in test [14] is Ribosomal protein S6 kinase alpha-3 (Homo sapiens) (UniProt P51812).
For test [15], the target named is STE20-like serine/threonine-protein kinase (Homo sapiens) (UniProt Q9H2G2).
Test [16] concerns the target Serine/threonine-protein kinase 16 (Homo sapiens) (UniProt O75716).
For test [17], the target named is Serine/threonine-protein kinase 38 (Homo sapiens) (UniProt Q15208).
Test [18] concerns the target T3, Serine/threonine-protein kinase 4 (Homo sapiens) (UniProt Q13043).
T3 sequence (whole entry): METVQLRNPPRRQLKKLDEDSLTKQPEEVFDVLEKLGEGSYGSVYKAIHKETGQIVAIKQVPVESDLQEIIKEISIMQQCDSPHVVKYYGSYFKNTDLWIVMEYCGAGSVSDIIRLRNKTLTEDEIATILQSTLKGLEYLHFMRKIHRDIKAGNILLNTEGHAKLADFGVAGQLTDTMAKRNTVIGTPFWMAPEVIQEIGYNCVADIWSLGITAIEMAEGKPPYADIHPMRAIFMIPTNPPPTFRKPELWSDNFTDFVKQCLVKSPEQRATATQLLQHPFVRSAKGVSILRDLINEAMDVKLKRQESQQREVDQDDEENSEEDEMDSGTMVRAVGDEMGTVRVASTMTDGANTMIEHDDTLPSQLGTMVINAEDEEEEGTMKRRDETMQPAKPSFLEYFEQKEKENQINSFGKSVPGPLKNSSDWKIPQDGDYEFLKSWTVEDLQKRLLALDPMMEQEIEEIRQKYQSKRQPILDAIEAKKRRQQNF

In test [19] the target is T4, Lymphokine-activated killer T-cell-originated protein kinase (Homo sapiens) (UniProt Q96KB5).
T4 sequence (whole entry): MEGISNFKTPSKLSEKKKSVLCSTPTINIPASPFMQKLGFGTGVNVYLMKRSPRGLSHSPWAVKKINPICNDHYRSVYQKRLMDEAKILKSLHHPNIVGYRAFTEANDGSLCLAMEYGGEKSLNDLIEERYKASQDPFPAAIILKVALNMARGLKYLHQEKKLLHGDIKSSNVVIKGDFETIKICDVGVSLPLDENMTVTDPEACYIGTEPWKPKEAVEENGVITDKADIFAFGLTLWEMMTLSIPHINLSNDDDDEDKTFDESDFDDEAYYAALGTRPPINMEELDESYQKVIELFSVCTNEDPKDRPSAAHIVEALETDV

The target of test [20] is Serine/threonine-protein kinase VRK2 (Homo sapiens) (UniProt Q86Y07).
Test [21] deals with Serine/threonine-protein kinase 25 (Homo sapiens) (UniProt O00506).

Broadly, the ΔTm is the shift of the melting midpoint relative to a reference.

Chain of Serine/threonine-protein kinase VRK2 (Homo sapiens) (Q86Y07 whole entry): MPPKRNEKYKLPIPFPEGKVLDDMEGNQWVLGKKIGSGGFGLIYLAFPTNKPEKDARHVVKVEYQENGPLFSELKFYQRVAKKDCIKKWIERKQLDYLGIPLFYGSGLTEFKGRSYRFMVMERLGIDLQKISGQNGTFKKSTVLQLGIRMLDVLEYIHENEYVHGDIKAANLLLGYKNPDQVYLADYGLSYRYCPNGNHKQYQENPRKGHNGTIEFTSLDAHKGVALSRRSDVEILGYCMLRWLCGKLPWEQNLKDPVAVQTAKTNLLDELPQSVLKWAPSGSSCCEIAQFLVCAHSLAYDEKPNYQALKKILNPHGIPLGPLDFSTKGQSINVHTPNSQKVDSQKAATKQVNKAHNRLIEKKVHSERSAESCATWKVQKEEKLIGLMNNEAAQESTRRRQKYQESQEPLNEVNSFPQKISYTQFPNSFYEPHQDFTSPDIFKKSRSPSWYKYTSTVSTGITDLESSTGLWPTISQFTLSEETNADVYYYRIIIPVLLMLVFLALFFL
Chain of Serine/threonine-protein kinase RIO2 (Homo sapiens) (Q9BVS4 whole entry, looked up): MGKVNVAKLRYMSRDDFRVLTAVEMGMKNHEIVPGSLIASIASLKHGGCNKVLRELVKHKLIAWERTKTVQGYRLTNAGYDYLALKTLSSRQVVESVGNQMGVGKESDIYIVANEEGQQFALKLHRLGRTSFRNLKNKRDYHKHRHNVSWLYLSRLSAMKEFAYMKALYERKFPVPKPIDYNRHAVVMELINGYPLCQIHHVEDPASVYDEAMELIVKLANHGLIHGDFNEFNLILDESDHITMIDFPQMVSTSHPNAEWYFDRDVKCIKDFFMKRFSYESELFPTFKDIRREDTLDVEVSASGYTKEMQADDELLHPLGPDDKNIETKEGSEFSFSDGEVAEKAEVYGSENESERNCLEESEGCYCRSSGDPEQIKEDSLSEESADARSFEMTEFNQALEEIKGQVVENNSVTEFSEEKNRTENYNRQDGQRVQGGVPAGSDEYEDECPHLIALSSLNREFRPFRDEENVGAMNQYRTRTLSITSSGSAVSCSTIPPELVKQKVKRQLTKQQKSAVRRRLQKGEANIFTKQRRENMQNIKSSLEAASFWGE
Chain of Mitogen-activated protein kinase 3 (P27361 whole entry): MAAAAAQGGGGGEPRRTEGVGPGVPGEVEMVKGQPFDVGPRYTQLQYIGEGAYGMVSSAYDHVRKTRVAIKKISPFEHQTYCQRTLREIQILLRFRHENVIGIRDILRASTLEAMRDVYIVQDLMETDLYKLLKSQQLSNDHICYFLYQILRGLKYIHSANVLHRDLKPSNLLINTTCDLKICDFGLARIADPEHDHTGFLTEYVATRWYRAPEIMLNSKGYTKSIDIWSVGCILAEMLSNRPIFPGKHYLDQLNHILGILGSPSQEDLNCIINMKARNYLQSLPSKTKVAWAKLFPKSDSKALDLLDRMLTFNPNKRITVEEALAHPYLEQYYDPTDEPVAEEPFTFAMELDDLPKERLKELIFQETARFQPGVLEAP
Chain of Dual specificity mitogen-activated protein kinase kinase 2 (P36507 whole entry): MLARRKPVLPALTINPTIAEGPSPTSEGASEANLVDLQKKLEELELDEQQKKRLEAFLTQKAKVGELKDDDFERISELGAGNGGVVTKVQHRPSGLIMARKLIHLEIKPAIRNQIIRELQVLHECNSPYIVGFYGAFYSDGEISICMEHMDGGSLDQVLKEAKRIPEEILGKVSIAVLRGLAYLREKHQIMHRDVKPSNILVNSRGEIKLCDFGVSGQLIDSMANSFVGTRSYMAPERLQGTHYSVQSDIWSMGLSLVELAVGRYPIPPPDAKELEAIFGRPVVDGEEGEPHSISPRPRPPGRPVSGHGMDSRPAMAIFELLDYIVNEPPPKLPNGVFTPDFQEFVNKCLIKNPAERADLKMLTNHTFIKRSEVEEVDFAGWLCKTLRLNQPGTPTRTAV
Chain of Serine/threonine-protein kinase 16 (Homo sapiens) (O75716 whole entry): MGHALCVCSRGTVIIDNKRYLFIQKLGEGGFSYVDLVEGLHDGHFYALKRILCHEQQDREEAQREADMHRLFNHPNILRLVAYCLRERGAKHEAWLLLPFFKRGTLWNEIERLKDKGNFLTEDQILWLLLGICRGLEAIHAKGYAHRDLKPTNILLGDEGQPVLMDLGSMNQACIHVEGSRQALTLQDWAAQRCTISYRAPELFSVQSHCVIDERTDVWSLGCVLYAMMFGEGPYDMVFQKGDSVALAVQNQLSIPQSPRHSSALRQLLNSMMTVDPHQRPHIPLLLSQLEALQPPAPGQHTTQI
Chain of Serine/threonine-protein kinase OSR1 (Homo sapiens) (O95747 2-527 limits assumed): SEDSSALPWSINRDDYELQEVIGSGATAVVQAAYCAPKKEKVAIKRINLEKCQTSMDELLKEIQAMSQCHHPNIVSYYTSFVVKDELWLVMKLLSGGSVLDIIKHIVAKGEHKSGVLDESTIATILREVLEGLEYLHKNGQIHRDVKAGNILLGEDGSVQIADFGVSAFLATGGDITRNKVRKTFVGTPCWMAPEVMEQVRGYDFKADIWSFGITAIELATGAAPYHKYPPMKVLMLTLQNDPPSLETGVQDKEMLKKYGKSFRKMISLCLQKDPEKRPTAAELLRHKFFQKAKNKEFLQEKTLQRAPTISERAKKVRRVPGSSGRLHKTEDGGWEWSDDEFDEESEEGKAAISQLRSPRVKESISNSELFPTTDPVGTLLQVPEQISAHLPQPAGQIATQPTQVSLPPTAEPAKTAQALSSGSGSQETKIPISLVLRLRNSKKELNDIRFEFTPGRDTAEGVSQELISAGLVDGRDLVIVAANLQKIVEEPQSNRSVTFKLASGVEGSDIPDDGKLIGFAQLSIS
Chain of Dual specificity protein kinase CLK1 (Homo sapiens) (P49759 whole entry, looked up): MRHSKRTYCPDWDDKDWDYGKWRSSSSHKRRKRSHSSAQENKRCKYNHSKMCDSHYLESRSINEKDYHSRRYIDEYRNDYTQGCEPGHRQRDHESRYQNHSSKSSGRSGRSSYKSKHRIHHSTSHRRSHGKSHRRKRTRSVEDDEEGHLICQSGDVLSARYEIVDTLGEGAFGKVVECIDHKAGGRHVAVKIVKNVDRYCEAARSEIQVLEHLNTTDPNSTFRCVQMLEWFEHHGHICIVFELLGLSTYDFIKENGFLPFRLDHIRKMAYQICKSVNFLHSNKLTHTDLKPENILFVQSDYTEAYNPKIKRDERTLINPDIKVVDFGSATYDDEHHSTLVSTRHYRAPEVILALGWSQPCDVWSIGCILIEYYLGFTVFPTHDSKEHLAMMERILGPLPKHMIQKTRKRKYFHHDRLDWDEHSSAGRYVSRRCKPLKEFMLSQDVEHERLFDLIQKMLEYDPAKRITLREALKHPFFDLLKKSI
Chain of Cyclin-dependent kinase 6 (Homo sapiens) (Q00534 whole entry): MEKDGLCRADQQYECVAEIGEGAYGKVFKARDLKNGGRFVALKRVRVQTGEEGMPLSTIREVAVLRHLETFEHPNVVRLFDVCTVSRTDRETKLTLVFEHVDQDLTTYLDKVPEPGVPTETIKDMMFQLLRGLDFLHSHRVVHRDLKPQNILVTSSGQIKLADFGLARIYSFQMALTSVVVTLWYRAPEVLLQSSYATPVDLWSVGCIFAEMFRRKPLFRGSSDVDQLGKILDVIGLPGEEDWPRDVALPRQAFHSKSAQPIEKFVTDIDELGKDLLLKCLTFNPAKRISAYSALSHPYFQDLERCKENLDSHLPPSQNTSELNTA
Chain of Calcium/calmodulin-dependent protein kinase type 1D (Homo sapiens) (Q8IU85 whole entry, looked up): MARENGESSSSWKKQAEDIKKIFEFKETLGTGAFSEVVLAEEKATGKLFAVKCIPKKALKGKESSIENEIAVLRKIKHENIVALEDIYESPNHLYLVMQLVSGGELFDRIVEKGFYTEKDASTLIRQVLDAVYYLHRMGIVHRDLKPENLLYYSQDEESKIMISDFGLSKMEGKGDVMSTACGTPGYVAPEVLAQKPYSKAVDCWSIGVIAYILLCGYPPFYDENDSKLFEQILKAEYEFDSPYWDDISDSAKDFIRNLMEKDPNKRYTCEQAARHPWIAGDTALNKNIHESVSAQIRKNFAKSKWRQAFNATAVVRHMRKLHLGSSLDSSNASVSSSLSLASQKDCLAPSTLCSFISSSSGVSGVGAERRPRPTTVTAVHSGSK
Chain of Serine/threonine-protein kinase 25 (Homo sapiens) (O00506 whole entry, looked up): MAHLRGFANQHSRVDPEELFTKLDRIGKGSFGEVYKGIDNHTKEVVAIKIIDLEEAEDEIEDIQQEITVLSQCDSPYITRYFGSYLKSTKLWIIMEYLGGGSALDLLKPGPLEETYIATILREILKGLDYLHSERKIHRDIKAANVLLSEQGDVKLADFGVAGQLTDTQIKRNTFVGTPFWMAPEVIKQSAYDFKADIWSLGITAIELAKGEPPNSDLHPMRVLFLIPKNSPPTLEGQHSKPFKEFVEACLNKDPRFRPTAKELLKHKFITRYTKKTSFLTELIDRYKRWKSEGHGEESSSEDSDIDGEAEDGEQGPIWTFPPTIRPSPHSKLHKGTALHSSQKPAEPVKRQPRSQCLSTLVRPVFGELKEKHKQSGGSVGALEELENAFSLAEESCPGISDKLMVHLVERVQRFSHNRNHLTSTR
Chain of Serine/threonine-protein kinase 38 (Homo sapiens) (Q15208 2-465 limits assumed): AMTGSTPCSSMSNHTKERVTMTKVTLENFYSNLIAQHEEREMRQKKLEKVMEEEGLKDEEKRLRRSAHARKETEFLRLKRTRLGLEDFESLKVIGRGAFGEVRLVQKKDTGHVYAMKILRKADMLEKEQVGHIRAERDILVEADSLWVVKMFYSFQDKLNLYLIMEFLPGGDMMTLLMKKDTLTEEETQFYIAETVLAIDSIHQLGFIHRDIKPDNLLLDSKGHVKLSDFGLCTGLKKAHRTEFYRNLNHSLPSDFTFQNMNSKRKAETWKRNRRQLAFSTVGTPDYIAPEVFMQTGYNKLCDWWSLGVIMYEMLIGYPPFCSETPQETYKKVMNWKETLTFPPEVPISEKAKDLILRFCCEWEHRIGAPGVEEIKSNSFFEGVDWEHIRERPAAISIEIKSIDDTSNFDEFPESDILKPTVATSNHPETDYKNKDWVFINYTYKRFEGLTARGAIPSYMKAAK

For the compound `COc1cc(O)c2c(c1)oc(=O)c1c3cc(O)c(O)cc3oc21` [WEDELOLACTONE], the ΔTm stood at 1.1 °C in test [1]; 0.1 °C in [2]; 0.6 °C in test [3]; 2.6 °C in test [4]; 0 °C in [5]; 0.1 °C in [6]. Besides, the ΔTm in test [7] is 0.8 °C; in [8] it was 2 °C; in test [9], 0.4 °C; in test [10], 1.9 °C; in test [11], -0.4 °C; in test [12], 2.3 °C. The ΔTm in test [13] came to 3.6 °C; in test [14], 1.8 °C; in test [15], 1.3 °C; in test [16], 0.1 °C; in test [17] it was 0.5 °C; in test [18], 2.4 °C. Besides, the ΔTm amounted to 0 °C in test [19], 1.2 °C in test [20] and 2.7 °C in test [21].

Take `COc1cccc(-c2cc(=O)c3ccccc3o2)c1N`: the ΔTm in test [1] was -0.1 °C; in test [2], -0.2 °C; in test [3], 0.1 °C; in test [4], 0.2 °C; in test [5], -0.5 °C; in test [6], 0.1 °C. The ΔTm in test [7] was 0 °C; in [8] it was -0.2 °C; in test [9] it was -0.1 °C; in [10] it was 0.2 °C; in [11] it was -0.2 °C; in [12], 0.3 °C. Moreover, the ΔTm in test [13] was 0.5 °C; in [14] it was -0.1 °C; in test [15], -0.1 °C; in test [16], 0.6 °C; in [17], 0.2 °C; in [18] it was -0.1 °C. Besides, the values for the ΔTm in test [19], in [20] and in [21] were 1.2 °C, 0.2 °C and 0.5 °C, respectively.

For `CCOc1cc2ncnc(Nc3cccc(Br)c3)c2cc1OCC`, the ΔTm in test [1] was found to be 0.7 °C; in test [2], 0.4 °C; in test [3] it was 0.2 °C; in [4] it was 2 °C; in test [5], 2.7 °C; in [6], 0.8 °C. Moreover, the ΔTm in test [7] is 0.7 °C; in [8], 1.1 °C; in test [9], 0.7 °C; in [10], 1 °C; in [11] it was -0.9 °C; in test [12] it was 0.8 °C. Further, the ΔTm in [13] came to 3.5 °C; in test [14], 2.5 °C; in [15], 7.9 °C; in test [16] it was 0.9 °C; in [17] it was 0.7 °C; in test [18], 2.2 °C. Moreover, the ΔTm in test [19] was found to be 0.1 °C; in test [20] it was 0.6 °C; in [21], 1.5 °C.

In the case of `N=C(N)NCCNS(=O)(=O)c1cccc2cnccc12`, the ΔTm was 0 °C in test [1]; -0.4 °C in test [2]; 0 °C in test [3]; 0.7 °C in [4]; 2 °C in test [5]; -0.6 °C in test [6]. The ΔTm in test [7] is 0.1 °C; in test [8], 0.5 °C; in test [9], 0.2 °C; in test [10], 1.1 °C; in [11], -0.3 °C; in test [12], 1.7 °C. In addition, the ΔTm in [13] came to 1.5 °C; in [14], 0.4 °C; in test [15] it was 0.3 °C; in test [16] it was 0.3 °C; in test [17], 0.1 °C; in test [18], 0.4 °C. Moreover, the ΔTm in test [19] is 0.6 °C; in [20], 0.1 °C; in test [21] it was -0.4 °C.

Turning to `Cc1nc2sccn2c(=O)c1CCN1CCC(=C(c2ccccc2)c2ccc(F)cc2)CC1`, the ΔTm in [1] turned out to be 0.5 °C; in [2], 0.4 °C; in test [3], 0 °C; in test [4], 6.5 °C; in test [5], 4.2 °C; in test [6] it was 1.8 °C. Also, the shift in melting temperature (ΔTm) in [7] was 0 °C; in [8] it was 0.1 °C; in [9] it was 0.1 °C; in test [10], 1 °C; in test [11], -0.8 °C; in test [12], 1.6 °C. Further, the ΔTm amounted to 4.5 °C in test [13]; 2.8 °C in test [14]; 1 °C in test [15]; 3.1 °C in test [16]; 0.6 °C in [17]; 3.6 °C in [18]. The results for the ΔTm in test [19], in [20] and in test [21] were -0.5 °C, 0.2 °C and 0.3 °C, respectively.

As to `N#C/C(=C(/N)Sc1ccc(N)cc1)c1ccccc1C(F)(F)F`, the shift in melting temperature (ΔTm) in test [1] was 0.3 °C; in test [2], 0.2 °C; in [3], 0.3 °C; in test [4] it was 0.1 °C; in test [5], -0.2 °C; in test [6] it was 0.8 °C. Further, the ΔTm in test [7] is -0.1 °C; in [8], 1.3 °C; in test [9], -0.1 °C; in [10], 0.5 °C; in test [11], -0.1 °C; in test [12] it was 0.7 °C. For the same compound, the ΔTm in test [13] is -0.2 °C; in test [14], 0 °C; in test [15], 0 °C; in test [16] it was 0.2 °C; in test [17], 0.4 °C; in test [18] it was 0.8 °C. Also, the thermal shift (ΔTm) in test [19] was -0.4 °C; in test [20] it was 0.1 °C; in test [21], 0 °C.
